The text below walks through data of ChEMBL document CHEMBL4270580, “Syntheses of C-ring modified dehydroabietylamides and their cytotoxic activity” (Eur J Med Chem, 2018).

Data set [1] relates to A2780. Kind of data set: Cytotoxicity against human A2780 cells after 96 hrs by sulforhodamine-B assay. The class given is functional, cell-based.
The test system of data set [2] is MCF7. The data set is described as follows: Cytotoxicity against human MCF7 cells after 96 hrs by sulforhodamine-B assay. Type of data set: functional, cell-based. A general note: Sulforhodamine B stains cellular protein and so reports cell mass.
Data set [3] concerns SW-1736. Kind of data set: Cytotoxicity against human SW1736 cells after 96 hrs by sulforhodamine-B assay. Type of data set: functional, cell-based.
The subject of data set [4] is NIH3T3. The data set is described as follows: Cytotoxicity against mouse NIH/3T3 cells after 96 hrs by sulforhodamine-B assay. The class given is cell-based.
Data set [5] has as its system HT-29. Kind of data set: Cytotoxicity against human HT-29 cells after 96 hrs by sulforhodamine-B assay. Type of data set: functional, cell-based.
Data set [6] has as its system FaDu. Kind of data set: Cytotoxicity against human FADU cells after 96 hrs by sulforhodamine-B assay. Type of data set: functional, cell-based.
The nature of data set [7]: Selectivity index, ratio of EC50 for mouse NIH/3T3 cells to EC50 for human MCF7 cells. The class given is toxicity. The following applies: NIH/3T3 cells and MCF7 cells, read-out: Ratio EC50.
The mark [8] stands for this setting: Homo sapiens, A2780, 96 h, read-out: EC50.
The mark [9] stands for this setting: Homo sapiens, MCF7, 96 h, read-out: EC50.
[10] abbreviates: Homo sapiens, SW-1736, 96 h, read-out: EC50.
Setting [11] is: Mus musculus, NIH3T3, 96 h, read-out: EC50.
Where [12] appears, read: Homo sapiens, HT-29, 96 h, read-out: EC50.
Where [13] appears, read: Homo sapiens, FaDu, 96 h, read-out: EC50.

Consider `CC(C)c1cc2c(cc1O)[C@@]1(C)CCC[C@@](C)(CN)[C@@H]1CC2`, for which the EC50 (as a rule, the concentration giving half of the maximal effect) in data set [1] (setting [8]) was determined as 17.3 µM; in data set [2] (setting [9]) it was 8.9 µM; in data set [3] (setting [10]) it was 13.6 µM; in data set [4] (setting [11]) it was 22 µM; in data set [5] (setting [12]), 9.5 µM; in data set [6] (setting [13]), 11.5 µM.

Take `COc1ccc(C(=O)NC[C@]2(C)CCC[C@]3(C)c4ccc(C(C)C)cc4CC[C@@H]23)cc1`: the EC50 in data set [1] (setting [8]) turned out to be 9.1 µM; in data set [2] (setting [9]) it was 4.5 µM; in data set [3] (setting [10]), 11.2 µM; in data set [4] (setting [11]) it was 22.8 µM; in data set [5] (setting [12]), 10.4 µM; in data set [6] (setting [13]), 17.3 µM. Besides, in data set [7], the selectivity ratio amounted to 8.8.

On to `CC(C)c1ccc2c(c1)CC[C@H]1[C@](C)(CNC(=O)c3ccccc3)CCC[C@]21C`, for which the EC50 in data set [1] (setting [8]), in data set [2] (setting [9]), in data set [3] (setting [10]), in data set [4] (setting [11]), in data set [5] (setting [12]) and in data set [6] (setting [13]) was > 30 µM each time.

Consider `CC(C)c1cc2c(cc1O)[C@@]1(C)CCC[C@@](C)(CNC(=O)c3ccc(O)cc3)[C@@H]1CC2`, for which the EC50 in data set [1] (setting [8]), in data set [2] (setting [9]), in data set [3] (setting [10]), in data set [4] (setting [11]), in data set [5] (setting [12]) and in data set [6] (setting [13]) was > 30 µM each time.

`CC(=O)Oc1ccc(C(=O)NC[C@]2(C)CCC[C@]3(C)c4cc(OC(C)=O)c(C(C)C)cc4CC[C@@H]23)cc1`: the EC50 in data set [1] (setting [8]) turned out to be 17.9 µM; in data set [2] (setting [9]), 10.5 µM; in data set [3] (setting [10]), 17.2 µM; in data set [4] (setting [11]) it was 21.4 µM; in data set [5] (setting [12]), 11.2 µM; in data set [6] (setting [13]) it was 20.2 µM.

For `CC(=O)Oc1cc2c(cc1C(C)C)CC[C@H]1[C@](C)(CNC(=O)c3ccncc3)CCC[C@]21C`, the EC50 in data set [1] (setting [8]) was 14.4 µM; in data set [2] (setting [9]), 5.7 µM; in data set [3] (setting [10]) it was 12.8 µM; in data set [4] (setting [11]), 29.5 µM; in data set [5] (setting [12]), 15.3 µM; in data set [6] (setting [13]), 12.4 µM.

Regarding `COc1ccc(C(=O)NC[C@]2(C)CCC[C@]3(C)c4cc(O)c(C(C)C)cc4CC[C@@H]23)cc1`, the EC50 stood at 13.2 µM in data set [1] (setting [8]); 11.7 µM in data set [2] (setting [9]); 16.1 µM in data set [3] (setting [10]); 23.2 µM in data set [4] (setting [11]); 13.5 µM in data set [5] (setting [12]); 20 µM in data set [6] (setting [13]).

For `CC(C)c1cc2c(cc1O)[C@@]1(C)CCC[C@@](C)(CNC(=O)CCCC[C@H]3SCC4NC(=O)NC43)[C@@H]1CC2` (some centres undefined), the EC50 in data set [1] (setting [8]), in data set [2] (setting [9]), in data set [3] (setting [10]), in data set [4] (setting [11]), in data set [5] (setting [12]) and in data set [6] (setting [13]) was > 30 µM in each case.

In the case of `CC(C)c1ccc2c(c1)CC[C@H]1[C@](C)(CNC(=O)c3ccc(Cl)cc3)CCC[C@]21C`, the EC50 in data set [1] (setting [8]), in data set [2] (setting [9]), in data set [3] (setting [10]), in data set [4] (setting [11]), in data set [5] (setting [12]) and in data set [6] (setting [13]) was > 30 µM throughout.

Turning to `COc1ccc(C(=O)NC[C@]2(C)CCC[C@]3(C)c4cc(OC(C)=O)c(C(C)C)cc4CC[C@@H]23)cc1`, the EC50 entry in data set [1] (a2780), in data set [2] (mcf7), in data set [3] (sw-1736), in data set [4] (nih3t3), in data set [5] (ht-29) and in data set [6] (fadu) was “Nd(Insoluble)” in each case.

In the case of `CC(=O)Oc1cc2c(cc1C(C)C)CC[C@H]1[C@](C)(CNC(=O)c3ccc(Cl)cc3)CCC[C@]21C`, the EC50 in data set [1] (setting [8]) was 5 µM; in data set [2] (setting [9]), 6.1 µM; in data set [3] (setting [10]) it was 15.3 µM; in data set [4] (setting [11]), > 30 µM; in data set [5] (setting [12]), 11.7 µM; in data set [6] (setting [13]), 14.4 µM.

Regarding `CC(C)c1ccc2c(c1)CC[C@H]1[C@](C)(CNC(=O)c3ccc(O)cc3)CCC[C@]21C`, the EC50 was 8.7 µM in data set [1] (setting [8]); 8 µM in data set [2] (setting [9]); 13 µM in data set [3] (setting [10]); 6.9 µM in data set [4] (setting [11]); 8.5 µM in data set [5] (setting [12]); 14.1 µM in data set [6] (setting [13]).

For `CC(=O)Oc1cc2c(cc1C(C)C)CC[C@H]1[C@](C)(CNC(=O)c3ccccc3)CCC[C@]21C`, the EC50 in data set [1] (setting [8]) came to 8.1 µM; in data set [2] (setting [9]), 4.5 µM; in data set [3] (setting [10]) it was 13.5 µM; in data set [4] (setting [11]), 17.3 µM; in data set [5] (setting [12]), 9 µM; in data set [6] (setting [13]) it was 13.4 µM.

Regarding `CC(C)c1ccc2c(c1)CC[C@H]1[C@](C)(CNC(=O)CCCC[C@H]3SCC4NC(=O)NC43)CCC[C@]21C` (some centres undefined), the EC50 was 18.6 µM in data set [1] (setting [8]); 11.6 µM in data set [2] (setting [9]); > 30 µM in data set [3] (setting [10]); 15.7 µM in data set [4] (setting [11]); 15.5 µM in data set [5] (setting [12]); 24.5 µM in data set [6] (setting [13]).

As for `CC(C)c1cc2c(cc1O)[C@@]1(C)CCC[C@@](C)(CNC(=O)c3ccncc3)[C@@H]1CC2`, the EC50 in data set [1] (setting [8]) was 12.9 µM; in data set [2] (setting [9]), 4.3 µM; in data set [3] (setting [10]), 27.3 µM; in data set [4] (setting [11]), 24.2 µM; in data set [5] (setting [12]) it was 19 µM; in data set [6] (setting [13]), 18.8 µM. Further, the selectivity ratio in data set [7] turned out to be 6.2.

Consider `CC(C)c1cc2c(cc1O)[C@@]1(C)CCC[C@@](C)(CNC(=O)c3ccccc3)[C@@H]1CC2`, for which the EC50 in data set [1] (setting [8]) was 12.5 µM; in data set [2] (setting [9]), 4.8 µM; in data set [3] (setting [10]), 11.5 µM; in data set [4] (setting [11]) it was 18.1 µM; in data set [5] (setting [12]) it was 16.2 µM; in data set [6] (setting [13]), 14.8 µM.

In the case of `CC(C)c1ccc2c(c1)CC[C@H]1[C@](C)(CNC(=O)c3ccncc3)CCC[C@]21C`, the EC50 in data set [1] (setting [8]) came to 9.8 µM; in data set [2] (setting [9]), 7.9 µM; in data set [3] (setting [10]), 14.2 µM; in data set [4] (setting [11]) it was 16.9 µM; in data set [5] (setting [12]) it was 10.7 µM; in data set [6] (setting [13]), 14.4 µM.

As for `CC(=O)Oc1cc2c(cc1C(C)C)CC[C@H]1[C@](C)(CNC(=O)CCCC[C@H]3SCC4NC(=O)NC43)CCC[C@]21C` (some centres undefined), the EC50 in data set [1] (setting [8]), in data set [2] (setting [9]), in data set [3] (setting [10]), in data set [4] (setting [11]), in data set [5] (setting [12]) and in data set [6] (setting [13]) was > 30 µM each time.

For the compound `Cc1ccc(C(=O)NC[C@]2(C)CCC[C@]3(C)c4cc(O)c(C(C)C)cc4CC[C@@H]23)cc1`, the EC50 in data set [1] (setting [8]) stood at 10 µM; in data set [2] (setting [9]), 8.5 µM; in data set [3] (setting [10]), 7 µM; in data set [4] (setting [11]), 16.8 µM; in data set [5] (setting [12]) it was 17.2 µM; in data set [6] (setting [13]), 12.2 µM.

On to `CC(C)c1cc2c(cc1OC(=O)c1ccccc1)[C@@]1(C)CCC[C@@](C)(CNC(=O)c3ccccc3)[C@@H]1CC2`, for which the EC50 in data set [1] (setting [8]), in data set [2] (setting [9]), in data set [3] (setting [10]), in data set [4] (setting [11]), in data set [5] (setting [12]) and in data set [6] (setting [13]) was > 30 µM throughout.

With `Cc1ccc(C(=O)NC[C@]2(C)CCC[C@]3(C)c4ccc(C(C)C)cc4CC[C@@H]23)cc1`, the EC50 in data set [1] (setting [8]) was 12.5 µM; in data set [2] (setting [9]) it was 10.4 µM; in data set [3] (setting [10]), 14.2 µM; in data set [4] (setting [11]) it was 13.5 µM; in data set [5] (setting [12]), 22.8 µM; in data set [6] (setting [13]), 18.9 µM.

Turning to `CC(=O)Oc1cc2c(cc1C(C)C)CC[C@H]1[C@](C)(CNC(=O)c3ccc(C)cc3)CCC[C@]21C`, the EC50 in data set [1] (setting [8]) is 19.4 µM; in data set [2] (setting [9]) it was 11.5 µM; in data set [3] (setting [10]), 10.7 µM; in data set [4] (setting [11]) it was > 30 µM; in data set [5] (setting [12]), 26.7 µM; in data set [6] (setting [13]), 12.8 µM.

On to `CC(C)c1cc2c(cc1O)[C@@]1(C)CCC[C@@](C)(CNC(=O)c3ccc(Cl)cc3)[C@@H]1CC2`, for which the EC50 in data set [1] (setting [8]) came out at 6.6 µM; in data set [2] (setting [9]) it was 5 µM; in data set [3] (setting [10]), 10.2 µM; in data set [4] (setting [11]), 16 µM; in data set [5] (setting [12]), 10.5 µM; in data set [6] (setting [13]) it was 21.9 µM.

With `CC(=O)Oc1cc2c(cc1C(C)C)CC[C@H]1[C@](C)(CN)CCC[C@]21C`, the half-maximal effective concentration (EC50) in data set [1] (setting [8]) was 20 µM; in data set [2] (setting [9]) it was 10.7 µM; in data set [3] (setting [10]), 18.3 µM; in data set [4] (setting [11]), > 30 µM; in data set [5] (setting [12]) it was 10.1 µM; in data set [6] (setting [13]), 13.1 µM.

As for `CC(C)c1ccc2c(c1)CC[C@H]1[C@](C)(CN)CCC[C@]21C`, the EC50 turned out to be 3.8 µM in data set [1] (setting [8]); 3 µM in data set [2] (setting [9]); 4.2 µM in data set [3] (setting [10]); 2.4 µM in data set [4] (setting [11]); 2.1 µM in data set [5] (setting [12]); 3.9 µM in data set [6] (setting [13]). The selectivity ratio in data set [7] worked out at 0.8.

`C=C(C)[C@@H]1CC[C@]2(C(=O)O)CC[C@]3(C)[C@H](CC[C@@H]4[C@@]5(C)CC[C@H](O)C(C)(C)[C@@H]5CC[C@]43C)[C@@H]12` [BETULINIC ACID]: the EC50 was 9.7 µM in data set [1] (setting [8]); 10.6 µM in data set [2] (setting [9]); 14.8 µM in data set [3] (setting [10]); 12.9 µM in data set [4] (setting [11]); 16 µM in data set [5] (setting [12]); 10.7 µM in data set [6] (setting [13]).
